# Source: article PMC12598805, “Crystal Structure–Activity Relationship of Some MeO Phenylacrylonitriles: Dual Antimicrobial–Cytotoxic Effects and in Silico Perspectives” (ChemistryOpen, 2025)
# Tests used:
# Assay type in all cases: cell-based
# [1] = tested on: Bacillus cereus (ATCC-10876); assay: Agar diffusion, zone of inhibition; settings: B.cereus, compounds at 50 mg mL^−1; for zone of inhibition at 50 mg/mL: Bacillus cereus, ATCC10876
# From the text: (§1) The antibacterial and antifungal activities were reported utilizing the method described by the Clinical & Laboratory Standards Institute.^[ [31], [32] ^] Agar diffusion method was used to determine the antimicrobial activity of the synthesized substances. The media used were mueller hinton agar (MHA) for bacteria and sabouraud‐dextrose agar (SDA) for fungi (Merck), as recommended by the manufacturer.
# (§2) The synthesized compounds were initially investigated for their antimicrobial activity to elucidate the potential therapeutic utility against various pathogenic microbes using the agar plate diffusion method. The compounds were tested at a concentration of 50 mg mL^−1, and the antibiotics (ampicillin, kanamycin, and amphotericin B) were used at 5 mg mL^−1. […] K.pneumoniae and B.cereus were resistant to ampicillin, while they were susceptible to kanamycin with inhibition values of 30 and 26 mm, respectively. No antimicrobial activity of the compounds was observed against E.faecalis, S.typhimurium, K.pneumoniae, and for the fungus compared to Amphotericin B (20 mm).
# (§3) Bacillus cereus (ATCC-10876) […]
# (§4) ATCC: American Type Culture Collection; NRRL: Northern Regional Research Laboratory The compounds 2(a-c) obtained could only be completely solubilised with dimethyl sulphoxide (DMSO) and the highest possible stock solutions of 50 mg.mL-1 were prepared. To these wells 50 μl of the previously prepared substances were transferred using sterile micropipette tips. For comparison, Ampicillin and kanamycin antibiotics for bacteria and Amphotericin B antibiotics for fungus were used as positive controls and DMSO was used as negative control. The prepared petri plates were kept at +4°C for about 1 hour and then the bacterial cultures were incubated at 37°C for 18-24 hours and mould cultures at 27-30°C for 48-72 hours. The zones formed were measured millimetrically with callipers. The experiments were performed with three repetitions. […]
# [2] = tested on: Micrococcus luteus (NRRL-B-1018); assay: MBC by sub-culture from wells without growth; settings: NRRLB1018, M.luteus
# Description: (§5) Micrococcus luteus (NRRL-B-1018) […]
# (§6) ATCC: American Type Culture Collection; NRRL: Northern Regional Research Laboratory The compounds 2(a-c) obtained could only be completely solubilised with dimethyl sulphoxide (DMSO) and the highest possible stock solutions of 50 mg.mL-1 were prepared. […]
# (§7) 3.1. Determination of Minimum Inhibition Concentration (MIC)
# (§8) The minimum inhibition concentration (MIC) values of the compounds 2(a-c) against the test bacteria used in the study were determined according to the broth microdilution method.[1-2] MHB or SDB was used as test medium and bacterial and yeast suspensions were prepared at 0.5 Mc Farland concentration for each test bacteria. Double layer serial dilutions were prepared in "U" type 96-well microtiter plates. Medium+bacteria suspensions containing only medium in the first row, medium+bacteria in the second row and the final concentrations of the synthesised substances in the other rows between 25 mg.mL-1 and […] were added to the wells with a final volume of 200
# (§9) μL. Ampicillin, Kanamycin and Amphotericin B standard antibiotics were used as positive controls.
# (§10) Bacteria were incubated at 37±0.1 °C and C. albicans at 30±0.1 °C for 24-48 hours and the lowest concentration without growth was determined as MIC. Tests were performed in two parallel runs and mean values were given as a result. In order to estimate “the minimum bactericidal/fungicidal concentrations (MBC/MFC) of the synthesised acrylonitrile derivatives “needed to indicate […] killing of the original inoculum,” 10 μl was taken from the wells with no observed growth and further sub-cultured onto their agar media (MHA and SDA for bacterial and fungal strains, respectively).[3] […]
# [3] = tested on: Micrococcus luteus (NRRL-B-1018); assay: Broth microdilution MIC; settings: NRRLB1018, M.luteus
# Description: as §5, §6, §7, §8, §9
# (§11) Bacteria were incubated at 37±0.1 °C and C. albicans at 30±0.1 °C for 24-48 hours and the lowest concentration without growth was determined as MIC. Tests were performed in two parallel runs and mean values were given as a result. […]
# [4] = tested on: Pseudomonas aeruginosa (ATCC 27853); assay: Agar diffusion, zone of inhibition; settings: P.aeruginosa, compounds at 50 mg mL^−1; for zone of inhibition at 50 mg/mL: Pseudomonas aeruginosa, ATCC27853
# From the text: as §1
# as §2, with “mm). […]” for “mm).”
# (§12) Pseudomonas aeruginosa (ATCC 27853) […]
# as §4
# [5] = tested on: Klebsiella pneumoniae (ATCC-70063); assay: Agar diffusion, zone of inhibition; settings: Klebsiella pneumoniae, ATCC70063; K.pneumoniae; compounds at 50 mg mL^−1
# From the text: as §1
# as §2, with “mm). […]” for “mm).”
# Klebsiella pneumoniae (ATCC-70063)
# as §4
# [6] = tested on: Bacillus cereus (ATCC-10876); assay: Broth microdilution MIC; settings: Bacillus cereus, ATCC10876; B.cereus; read-out: MIC
# Description: as §3, §6, §7, §8, §9, §11
# [7] = tested on: Bacillus subtilis (ATCC-19659); assay: Agar diffusion, zone of inhibition; settings: B.subtilis, compounds at 50 mg mL^−1; for zone of inhibition at 50 mg/mL: Bacillus subtilis, ATCC19659
# From the text: as §1
# as §2, with “mm). […]” for “mm).”
# as §4
# [8] = tested on: Staphylococcus aureus (ATCC 29213); assay: Agar diffusion, zone of inhibition; settings: S.aureus, compounds at 50 mg mL^−1; for zone of inhibition at 50 mg/mL: Staphylococcus aureus, ATCC29213
# From the text: as §1
# as §2, with “mm). […]” for “mm).”
# Staphylococcus aureus (ATCC 29213) […]
# as §4
# [9] = tested on: Pseudomonas aeruginosa (ATCC 27853); assay: Broth microdilution MIC; settings: ATCC27853, P.aeruginosa
# Description: as §12, §6, §7, §8, §9, §11
# [10] = tested on: Escherichia coli (ATCC 25922); assay: Broth microdilution MIC; settings: ATCC25922, E.coli
# Description: Escherichia coli (ATCC 25922) […]
# as §6, §7, §8, §9, §11
# [11] = tested on: Salmonella typhimurium (NRRL-B-4420); assay: Agar diffusion, zone of inhibition; settings: Salmonella enterica; S.typhimurium; compounds at 50 mg mL^−1
# From the text: as §1
# as §2, with “mm). […]” for “mm).”
# Salmonella typhimurium (NRRL-B-4420) […]
# as §4
# [12] = tested on: Pseudomonas aeruginosa (ATCC 27853); assay: MBC by sub-culture from wells without growth; settings: ATCC27853, P.aeruginosa
# Description: as §12, §6, §7, §8, §9, §10
MIC [3] [mg/mL],MIC [6] [mg/mL],MIC [9] [mg/mL],MIC [10] [mg/mL],Structure (SMILES),zone of inhibition [1] [mm],zone of inhibition at 50 mg/mL [1] [mm],MBC [2] [mg/mL],zone of inhibition [4] [mm],zone of inhibition at 50 mg/mL [4] [mm],zone of inhibition at 50 mg/mL [5] [mm],zone of inhibition [7] [mm],zone of inhibition at 50 mg/mL [7] [mm],zone of inhibition [8] [mm],zone of inhibition at 50 mg/mL [8] [mm],zone of inhibition at 50 mg/mL [11] [mm],MBC [12] [mg/mL]
6.25,12.5,5,2.5,"COc1ccc(C=C(C#N)c2ccccc2)cc1 [2a, 3‐(4‐methoxyphenyl)‐2‐phenylacrylonitrile]",15 ± 2.12,15,6.25,13 ± 1.41,13,< 6,13 ± 0.71,13,14 ± 0.71,14,< 6,5
12.5,12.5,12.5,25,COc1ccc(/C=C(\C#N)c2ccc(F)cc2)cc1 [2b],13 ± 2.83,13,12.5,12 ± 0.71,12,< 6,13 ± 2.12,13,13 ± 0,13,< 6,12.5
2.5,12.5,12.5,25,COc1ccc(/C=C(\C#N)c2cc(C(F)(F)F)cc(C(F)(F)F)c2)cc1 [2c],14 ± 0.71,14,5,15 ± 0.71,15,< 6,14 ± 0,14,14 ± 1.41,14,< 6,12.5
